17 molecules from patent EP3262036B1, “THERAPEUTIC PYRIDAZINE COMPOUNDS AND USES THEREOF” (priority 2015, dated 2016) can be followed below.

Structures are written as SMILES.

The target of the experiment is BRG1 (Homo sapiens, UniProt P51532). The experiment can be described thus: biochemical. The class given is binding. Particulars: BRG1 HTRF IC50 (µM). The source says:
IC50 measurements for inhibitors using BRG1 TR-FRET Binding Assay

Sequence of BRG1 (P51532 1448-1575): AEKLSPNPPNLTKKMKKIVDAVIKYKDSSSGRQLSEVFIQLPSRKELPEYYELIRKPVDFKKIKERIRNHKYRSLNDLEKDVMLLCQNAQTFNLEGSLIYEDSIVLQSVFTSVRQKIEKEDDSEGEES

`CN1CCCN(c2cc(-c3ccccc3O)nnc2N)CC1` [Example 2, 2-(6-amino-5-(4-methyl-1,4-diazepan-1-yl)pyridazin-3-yl)phenol]: inhibition was half-maximal at 0.296 µM (IC50).

`Nc1nnc(-c2ccccc2O)cc1N1CCN(S(=O)(=O)c2ccccc2)CC1` [Example 11, 2-(6-amino-5-(4-(phenylsulfonyl)piperazin-1-yl)pyridazin-3-yl)phenol]: the IC50 was determined as 0.0612 µM. As for `Nc1nnc(-c2ccccc2O)cc1N1CCN(Cc2ccccc2)CC1` [Example 12, 2-(6-amino-5-(4-benzylpiperazin-1-yl)pyridazin-3-yl)phenol], the IC50 worked out at 0.0612 µM. Next, `Nc1nnc(-c2ccccc2O)cc1N1CCN(c2ccccc2)CC1` [Example 13, 2-(6-amino-5-(4-phenylpiperazin-1-yl)pyridazin-3-yl)phenol]: 0.0321 µM; `Nc1nnc(-c2ccccc2O)cc1N1CCN(Cc2ccccc2)C(=O)C1` [Example 14, 4-(3-amino-6-(2-hydroxyphenyl)pyridazin-4-yl)-1-benzylpiperazin-2-one]: 0.0735 µM; `Nc1nnc(-c2ccccc2O)cc1N1C[C@@H]2C[C@H]1CN2Cc1ccccc1` [Example 17, 2-(6-amino-5-((1S,4S)-5-benzyl-2,5-diazabicyclo[2.2.1]heptan-2-yl)pyridazin-3-yl)phenol]: 0.147 µM.

For the molecule `Nc1nnc(-c2ccccc2O)cc1N1CCC(c2ccccc2)CC1` [Example 18, 2-(6-amino-5-(4-phenylpiperidin-1-yl)pyridazin-3-yl)phenol], the IC50 was found to be 0.0967 µM. This IC50 lies about 1.5-fold lower than the previous one. In the case of `CN(C)C(=O)C1CCN(c2cc(-c3ccccc3O)nnc2N)CC1` [Example 19, 1-(3-amino-6-(2-hydroxyphenyl)pyridazin-4-yl)-N,N-dimethylpiperidine-4-carboxamide] it was 0.0564 µM; in that of `CC(C)(O)C1CCN(c2cc(-c3ccccc3O)nnc2N)CC1` [Example 20, 2-(6-amino-5-(4-(2-hydroxypropan-2-yl)piperidin-1-yl)pyridazin-3-yl)phenol], 0.0358 µM; in that of `CN(C)CC1CCCN(c2cc(-c3ccccc3O)nnc2N)C1` (centres unmarked) [Example 21, 2-(6-amino-5-(3-((dimethylamino)methyl)piperidin-1-yl)pyridazin-3-yl)phenol], 0.116 µM.

Consider `CC1CN(c2cc(-c3ccccc3O)nnc2N)CCN1Cc1ccccc1` (centres unmarked) [Example 22, 2-(6-amino-5-(4-benzyl-3-methylpiperazin-1-yl)pyridazin-3-yl)phenol], for which the IC50 was found to be 0.0421 µM.

In turn, `Nc1nnc(-c2ccccc2O)cc1N1CCNC(C(F)(F)F)C1` (centres unmarked) [Example 23, 2-(6-amino-5-(3-(trifluoromethyl)piperazin-1-yl)pyridazin-3-yl)phenol] gave an IC50 of 0.172 µM. In turn, `CNC(=O)CN1CCN(c2cc(-c3ccccc3O)nnc2N)CC1` [Example 24, 2-(4-(3-amino-6-(2-hydroxyphenyl)pyridazin-4-yl)piperazin-1-yl)-N-methylacetamide] displayed an IC50 of 0.0746 µM. Next, `CN1CCOC2(CCN(c3cc(-c4ccccc4O)nnc3N)CC2)C1` [Example 25, 2-(6-amino-5-(4-methyl-1-oxa-4,9-diazaspiro[5.5]undecan-9-yl)pyridazin-3-yl)phenol]: 0.0176 µM. Molecule `CS(=O)(=O)CCN1CCN(c2cc(-c3ccccc3O)nnc2N)CC1` [Example 26, 2-(6-amino-5-(4-(2-(methylsulfonyl)ethyl)piperazin-1-yl)pyridazin-3-yl)phenol] had an IC50 of 0.0978 µM. Molecule `Nc1nnc(-c2ccccc2O)cc1N1CCN(CC(F)(F)F)CC1` [Example 27, 2-(6-amino-5-(4-(2,2,2-trifluoroethyl)piperazin-1-yl)pyridazin-3-yl)phenol] gave an IC50 of 0.0755 µM. `Nc1nnc(-c2ccccc2O)cc1N1CCC2(CC1)CNC(=O)C2` [Example 29, 8-(3-amino-6-(2-hydroxyphenyl)pyridazin-4-yl)-2,8-diazaspiro[4.5]decan-3-one] came in with an IC50 of 0.0566 µM.
